In PubChem BioAssay AID256 (DTP/NCI, 2004):
“And” between values parts separate entries of the source, which are not always exact repeats. Equal values may be shown once. Toxic doses and inconclusive results are not listed.

Test system: CD2F1 mice, L1210 leukemia ip, survival T/C
Assay: NCI In Vivo Anticancer Drug Screen. Data for tumor model L1210 Leukemia (intraperitoneal) in CD2F1 (CDF1) mice
Details: higher = longer survival
Procedure, shortened: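 Read-out first: treated-group measurement over vehicle-control measurement, expressed as a ratio. Animals bore a transplanted tumor line and were dosed with compound or vehicle.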

[1] = endpoint: mean survival time, dose: 50.0 mg/kg/injection, schedule: Q04DX002 (ip), vehicle: saline with Tween-80
[2] = endpoint: mean survival time, dose: 100.0 mg/kg/injection, schedule: Q04DX002 (ip), vehicle: saline with Tween-80
[3] = endpoint: mean survival time, dose: 400.0 mg/kg/injection, schedule: Q04DX002 (ip), vehicle: saline with Tween-80
[4] = endpoint: mean survival time, dose: 100.0 mg/kg/injection, schedule: Q01DX009 (ip), vehicle: saline with Tween-80
[5] = endpoint: mean survival time, dose: 200.0 mg/kg/injection, schedule: Q01DX009 (ip), vehicle: saline with Tween-80
[6] = endpoint: mean survival time, dose: 400.0 mg/kg/injection, schedule: Q01DX009 (ip), vehicle: saline with Tween-80
[7] = endpoint: mean survival time, dose: 100.0 mg/kg/injection, schedule: Q01DX009 (ip), vehicle: saline
[8] = endpoint: mean survival time, dose: 200.0 mg/kg/injection, schedule: Q01DX009 (ip), vehicle: saline
[9] = endpoint: mean survival time, dose: 100.0 mg/kg/injection, schedule: Q04DX003 (ip), vehicle: saline with Tween-80
[10] = endpoint: mean survival time, dose: 200.0 mg/kg/injection, schedule: Q04DX003 (ip), vehicle: saline with Tween-80
[11] = endpoint: mean survival time, dose: 400.0 mg/kg/injection, schedule: Q04DX003 (ip), vehicle: saline with Tween-80

## Cn1cnc([N+](=O)[O-])c1[Se]c1nc(N)nc2c1ncn2C1OC(CO)C(O)C1O (stereo not drawn)
endpoint: mean survival time, dose: 2.0 mg/kg/injection, schedule: Q01DX009 (ip), vehicle: distilled water + Tween-80
  T/C: 114 % of control
endpoint: mean survival time, dose: 4.0 mg/kg/injection, schedule: Q01DX009 (ip), vehicle: distilled water + Tween-80
  T/C: 112 % of control
endpoint: mean survival time, dose: 8.0 mg/kg/injection, schedule: Q01DX009 (ip), vehicle: distilled water + Tween-80
  T/C: 108 % of control and 110 % of control
endpoint: mean survival time, dose: 12.5 mg/kg/injection, schedule: Q01DX005 (ip), vehicle: saline
  T/C: 166 % of control
endpoint: mean survival time, dose: 25.0 mg/kg/injection, schedule: Q01DX005 (ip), vehicle: saline
  T/C: 175 % of control
endpoint: mean survival time, dose: 50.0 mg/kg/injection, schedule: Q01DX005 (ip), vehicle: saline
  T/C: 176 % of control
endpoint: mean survival time, dose: 64.0 mg/kg/injection, schedule: Q01DX009 (ip), vehicle: distilled water + Tween-80
  T/C: 98 % of control

## CN(C)C(=O)Nc1nc2ccccc2s1
endpoint: mean survival time, dose: 25.0 mg/kg/injection, schedule: Q04DX002 (ip), vehicle: saline with Tween-80
  T/C: 103 % of control
[1]
  T/C: 95 % of control
[2]
  T/C: 115 % of control and 93 % of control
[3]
  T/C: 90 % of control

## C/C(=N/Nc1ccc([N+](=O)[O-])cc1[N+](=O)[O-])c1ccccc1
[4]
  T/C: 91 % of control
[5]
  T/C: 97 % of control
[6]
  T/C: 100 % of control

## CC1=COC2CCCCC2O1 (stereo not drawn) (tested in a mixture with another compound)
[4]
  T/C: 95 % of control
[5]
  T/C: 97 % of control
[6]
  T/C: 91 % of control

## O=C(c1ccc(O)cc1O)c1ccc(O)cc1O
endpoint: mean survival time, dose: 50.0 mg/kg/injection, schedule: Q01DX009 (ip), vehicle: saline
  T/C: 104 % of control
[7]
  T/C: 96 % of control
[8]
  T/C: 93 % of control

## FC(F)(F)c1ccc2c(c1)N(CCCN(CCCl)CCCl)c1ccccc1S2
endpoint: mean survival time, dose: 18.0 mg/kg/injection, schedule: Q01DX001 (ip), vehicle: saline
  T/C: 100 % of control
endpoint: mean survival time, dose: 28.0 mg/kg/injection, schedule: Q01DX001 (ip), vehicle: saline
  T/C: 111 % of control

## C[C@]12C[C@H](O)[C@H]3[C@@H](CCC4=CC(=O)CC[C@@]43C)[C@@H]1CC[C@@H]2C(=O)CO
endpoint: median survival time, dose: 25.0 mg/kg/injection, schedule: Q01DX009 (sc), vehicle: steriod suspending solution
  T/C: 100 % of control
endpoint: median survival time, dose: 50.0 mg/kg/injection, schedule: Q01DX009 (sc), vehicle: steriod suspending solution
  T/C: 100 % of control
endpoint: median survival time, dose: 100.0 mg/kg/injection, schedule: Q01DX009 (sc), vehicle: steriod suspending solution
  T/C: 100 % of control
endpoint: median survival time, dose: 200.0 mg/kg/injection, schedule: Q01DX009 (sc), vehicle: steriod suspending solution
  T/C: 100 % of control

## O=C(O)CCc1ccccc1-c1ccccc1
[1]
  T/C: 105 % of control
[2]
  T/C: 96 % of control and 97 % of control
endpoint: mean survival time, dose: 200.0 mg/kg/injection, schedule: Q04DX002 (ip), vehicle: saline with Tween-80
  T/C: 103 % of control and 105 % of control
[3]
  T/C: 100 % of control

## O=C(O)c1[nH]c(=O)[nH]c(=O)c1F
endpoint: mean survival time, dose: 1.25 mg/kg/injection, schedule: Q01DX009 (ip), vehicle: saline
  T/C: 101 % of control and 109 % of control
endpoint: mean survival time, dose: 2.5 mg/kg/injection, schedule: Q01DX007 (ip), vehicle: Klucel (hydroxypropylcellulose) (HPC)
  T/C: 119 % of control
endpoint: mean survival time, dose: 2.5 mg/kg/injection, schedule: Q01DX009 (ip), vehicle: saline
  T/C: 123 % of control
endpoint: mean survival time, dose: 2.5 mg/kg/injection, schedule: Q03DX003 (ip), vehicle: Klucel (hydroxypropylcellulose) (HPC)
  T/C: 110 % of control
endpoint: mean survival time, dose: 2.5 mg/kg/injection, schedule: Q04DX003 (ip), vehicle: Klucel (hydroxypropylcellulose) (HPC)
  T/C: 103 % of control
endpoint: mean survival time, dose: 5.0 mg/kg/injection, schedule: Q01DX007 (ip), vehicle: Klucel (hydroxypropylcellulose) (HPC)
  T/C: 165 % of control
endpoint: mean survival time, dose: 5.0 mg/kg/injection, schedule: Q01DX009 (ip), vehicle: saline
  T/C: 168 % of control
endpoint: mean survival time, dose: 5.0 mg/kg/injection, schedule: Q03DX003 (ip), vehicle: Klucel (hydroxypropylcellulose) (HPC)
  T/C: 122 % of control
endpoint: mean survival time, dose: 5.0 mg/kg/injection, schedule: Q04DX003 (ip), vehicle: Klucel (hydroxypropylcellulose) (HPC)
  T/C: 112 % of control
endpoint: mean survival time, dose: 10.0 mg/kg/injection, schedule: Q01DX007 (ip), vehicle: Klucel (hydroxypropylcellulose) (HPC)
  T/C: 119 % of control
endpoint: mean survival time, dose: 10.0 mg/kg/injection, schedule: Q04DX003 (ip), vehicle: Klucel (hydroxypropylcellulose) (HPC)
  T/C: 117 % of control

## CCCCCCCCCCCCCCCC(=O)Oc1ccc(/C(CC)=C(/CC)c2ccc(OC(=O)CCCCCCCCCCCCCCC)cc2)cc1
[4]
  T/C: 91 % of control

## CCOC(=O)C(Cc1ccccc1)P(=O)(OCC)OCC (stereo not drawn)
endpoint: mean survival time, dose: 100.0 mg/kg/injection, schedule: Q01DX001 (ip), vehicle: saline
  T/C: 108 % of control
endpoint: mean survival time, dose: 200.0 mg/kg/injection, schedule: Q01DX001 (ip), vehicle: saline
  T/C: 108 % of control
endpoint: mean survival time, dose: 400.0 mg/kg/injection, schedule: Q01DX001 (ip), vehicle: saline
  T/C: 100 % of control

## CCOC(=O)C(C)C(O)c1ccc(OC)cc1 (stereo not drawn)
endpoint: mean survival time, dose: 12.5 mg/kg/injection, schedule: Q01DX009 (ip), vehicle: saline with Tween-80
  T/C: 101 % of control
endpoint: mean survival time, dose: 25.0 mg/kg/injection, schedule: Q01DX009 (ip), vehicle: saline with Tween-80
  T/C: 101 % of control
endpoint: mean survival time, dose: 50.0 mg/kg/injection, schedule: Q01DX009 (ip), vehicle: saline with Tween-80
  T/C: 93 % of control

## CC1CC(C)(C)CC2(C1)OCC(CCl)O2 (stereo not drawn)
endpoint: mean survival time, dose: 100.0 mg/kg/injection, schedule: Q01DX009 (ip), vehicle: saline sonified
  T/C: 95 % of control
endpoint: mean survival time, dose: 200.0 mg/kg/injection, schedule: Q01DX009 (ip), vehicle: saline sonified
  T/C: 87 % of control
endpoint: mean survival time, dose: 400.0 mg/kg/injection, schedule: Q01DX009 (ip), vehicle: saline sonified
  T/C: 106 % of control

## O=C1C=CC(=O)N1c1ccc(Br)cc1 (tested in a mixture with another compound)
endpoint: mean survival time, dose: 100.0 mg/kg/injection, schedule: Q01DX009 (ip), vehicle: acetone
  T/C: 98 % of control
endpoint: mean survival time, dose: 200.0 mg/kg/injection, schedule: Q01DX009 (ip), vehicle: acetone
  T/C: 95 % of control

## OCC1C=CCC=C1
[7]
  T/C: 95 % of control
[8]
  T/C: 107 % of control
endpoint: mean survival time, dose: 400.0 mg/kg/injection, schedule: Q01DX009 (ip), vehicle: saline
  T/C: 101 % of control

## CCOC(=O)Nc1cc2c3ccccc3ncc2c2ccccc12
endpoint: mean survival time, dose: 25.0 mg/kg/injection, schedule: Q04DX003 (ip), vehicle: saline with Tween-80
  T/C: 94 % of control
endpoint: mean survival time, dose: 50.0 mg/kg/injection, schedule: Q04DX003 (ip), vehicle: saline with Tween-80
  T/C: 86 % of control
[9]
  T/C: 87 % of control
[10]
  T/C: 89 % of control
[11]
  T/C: 101 % of control

## CC1=CC(=O)C=C/C1=N/S(=O)(=O)c1ccccc1
endpoint: mean survival time, dose: 25.0 mg/kg/injection, schedule: Q01DX001 (ip), vehicle: saline with Tween-80
  T/C: 93 % of control
endpoint: mean survival time, dose: 50.0 mg/kg/injection, schedule: Q01DX001 (ip), vehicle: saline with Tween-80
  T/C: 90 % of control
endpoint: mean survival time, dose: 100.0 mg/kg/injection, schedule: Q01DX001 (ip), vehicle: saline with Tween-80
  T/C: 97 % of control

## O=C(CNC(=O)OCc1ccccc1)NCC(=O)NC(CO)C(=O)O (stereo not drawn)
[9]
  T/C: 95 % of control
[10]
  T/C: 104 % of control
[11]
  T/C: 96 % of control

## NC(=O)c1ccc[n+](Cc2c(Cl)cccc2Cl)c1
[9]
  T/C: 105 % of control
endpoint: median survival time, dose: 0.75 mg/kg/injection, schedule: Q01DX009 (ip), vehicle: saline
  T/C: 102 % of control
endpoint: median survival time, dose: 1.5 mg/kg/injection, schedule: Q01DX009 (ip), vehicle: saline
  T/C: 101 % of control
endpoint: median survival time, dose: 3.0 mg/kg/injection, schedule: Q01DX009 (ip), vehicle: saline
  T/C: 109 % of control
endpoint: median survival time, dose: 6.0 mg/kg/injection, schedule: Q01DX009 (ip), vehicle: saline
  T/C: 102 % of control
endpoint: median survival time, dose: 12.0 mg/kg/injection, schedule: Q01DX009 (ip), vehicle: saline
  T/C: 102 % of control
